Where two headings read alike, the source gives them in different places.
Biological target: T1, Zcchc11 enzyme (Homo sapiens, UniProt Q5TAX3)
T1 construct: made in house; host or cells: HEK293 cells (Zcchc11); E. coli Rosetta II (LIN28A)
T1 sequence (Q5TAX3 212-1420): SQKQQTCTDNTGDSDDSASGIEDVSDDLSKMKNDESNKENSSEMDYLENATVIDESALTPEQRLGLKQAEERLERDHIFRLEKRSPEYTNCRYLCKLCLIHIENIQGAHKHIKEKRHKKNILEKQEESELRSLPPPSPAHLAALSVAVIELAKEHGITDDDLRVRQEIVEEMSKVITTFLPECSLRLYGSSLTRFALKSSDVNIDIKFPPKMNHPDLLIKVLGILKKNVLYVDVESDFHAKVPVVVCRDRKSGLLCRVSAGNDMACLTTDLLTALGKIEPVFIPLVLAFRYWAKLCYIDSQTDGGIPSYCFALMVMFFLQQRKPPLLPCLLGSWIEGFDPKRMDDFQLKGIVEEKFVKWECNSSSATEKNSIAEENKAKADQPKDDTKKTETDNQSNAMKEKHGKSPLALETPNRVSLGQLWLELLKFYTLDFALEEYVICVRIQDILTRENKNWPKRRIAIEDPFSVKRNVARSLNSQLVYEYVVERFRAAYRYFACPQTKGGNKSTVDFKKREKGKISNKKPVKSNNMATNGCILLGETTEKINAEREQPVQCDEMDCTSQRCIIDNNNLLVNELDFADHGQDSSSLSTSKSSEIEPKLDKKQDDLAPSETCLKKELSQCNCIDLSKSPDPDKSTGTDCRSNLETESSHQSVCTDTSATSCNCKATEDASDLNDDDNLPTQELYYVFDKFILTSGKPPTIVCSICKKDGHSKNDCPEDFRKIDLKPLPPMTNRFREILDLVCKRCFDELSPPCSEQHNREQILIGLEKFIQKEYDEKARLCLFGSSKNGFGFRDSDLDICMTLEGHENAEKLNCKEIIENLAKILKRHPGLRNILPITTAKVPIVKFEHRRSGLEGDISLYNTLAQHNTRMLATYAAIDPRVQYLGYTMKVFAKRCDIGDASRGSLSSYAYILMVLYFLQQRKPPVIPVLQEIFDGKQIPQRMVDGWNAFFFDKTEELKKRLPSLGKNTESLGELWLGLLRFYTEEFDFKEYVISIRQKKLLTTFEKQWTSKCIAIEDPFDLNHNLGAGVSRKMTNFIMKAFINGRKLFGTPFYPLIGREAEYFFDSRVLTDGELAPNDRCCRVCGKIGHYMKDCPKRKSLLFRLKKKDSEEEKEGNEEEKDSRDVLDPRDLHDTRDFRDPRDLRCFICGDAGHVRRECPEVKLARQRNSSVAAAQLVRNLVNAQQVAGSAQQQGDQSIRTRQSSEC
Assay: TUTase assay (Zcchc11 assay, Lin28a-dependent polyuridylation of pre-let-7)
Type: biochemical
Settings: read-out: Potency Lin28a-dep Z11 IC50
Summary of the method: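 LIN28A (10 nM) in pH 7.3 HEPES/KCl/MgCl2/DTT buffer was mixed with serially diluted compound, then 0.2 nM truncated human Zcchc11 and 2 nM labeled pre-let-7 were added for 30 min at room temperature. UTP (5 uM) and quench probe (4 nM) then started the reaction. Linear early rates gave IC50 values.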

[1] = Lin28a-dependent Zcchc11 (Z11) TUTase assay
[2] = Lin28a-dependent Zcchc11 (Z11) TUTase activity

| Structure (SMILES) | IC50 [1] [nM] | IC50 [2] [nM] |
| --- | --- | --- |
| O=C(O)c1cn(-c2ccc(O)cc2)c2cc(N3CCC[C@@H]3COc3ccccn3)c(F)cc2c1=O [Example 382, (R)-6-fluoro-1-(4-hydroxyphenyl)-4-oxo-7-(2-((pyridin-2-yloxy)methyl)pyrrolidin-1-yl)-1,4-dihydroquinoline 3-carboxylic acid] | ≤ 1000 | – |
| COC1CC(n2cc(C(=O)O)c(=O)c3cc(F)c(N4CCC[C@@H]4COc4ccccn4)cc32)C1 (stereo partly drawn) [Example 359, (R)-6-fluoro-1-(3-methoxycyclo-butyl)-4-oxo-7-(2-((pyridin-2-yloxy)methyl)pyrrolidin-1-yl)-1,4-dihydro-quinoline-3-carboxylic acid] | 1000 to 10000 | – |
| CN(C)C1CN(c2cc(-n3cc(C(=O)O)c(=O)c4cc(Cl)c(N5CCC[C@@H]5COc5ncccc5Cl)nc43)ccn2)C1 [Example 544, (R)-6-chloro-7-(2-(((3-chloropyridin-2-yl)oxy)methyl)pyrrolidin-1-yl)-1-(2-(3-(dimethylamino)azetidin-1-yl)pyridin-4-yl)-4-oxo-1,4-dihydro-1,8-naphthyridine-3-carboxylic acid] | ≤ 1000 | – |
| O=C(O)c1cn(-c2cnccn2)c2cc(N3C[C@@H](F)C[C@H]3COc3ncccc3Cl)c(Cl)cc2c1=O [Example 468, 6-chloro-7-[(2S,4S)-2-{[(3-chloropyridin-2-yl)oxy]methyl}-4-fluoropyrrolidin-1-yl]-4-oxo-1-(pyrazin-2-yl)-1,4-dihydroquinoline-3-carboxylic acid] | 10000 to 50000 | – |
| CN(C)C1CN(c2ccc(-n3cc(C(=O)O)c(=O)c4cc(Cl)c(N5C[C@H](O)C[C@@H]5COc5ncccc5Cl)cc43)cn2)C1 [Example 602, 6-chloro-7-((2R,4R)-2-(((3-chloroypridin-2-yl)oxy)methyl)-4-hydroxypyrrolidin-1-yl)-1-(6-(3-(dimethylamino)azetidin-1-yl)pyridin-3-yl)-4-oxo-1,4-dihydroquinoline-3-carboxylic acid] | ≤ 1000 | – |
| Cc1cccnc1OC[C@H]1CCCN1c1cc2c(cc1C#N)c(=O)c(C(=O)O)cn2-c1cnn(C)c1 [Compound 248, 6-cyano-1-(1-methylpyrazol-4-yl)-7-[(2R)-2-[[(3-methylpyridin-2-yl)oxy]methyl]pyrrolidin-1-yl]-4-oxoquinoline-3-carboxylic acid] | – | ≤ 1000 |
| COC1C[C@H](COc2ncccc2Cl)N(c2cc3c(cc2Cl)c(=O)c(C(=O)O)cn3-c2ccc(N3CC(N(C)C)C3)nc2)C1 (stereo partly drawn) [Compound 327, 6-Chloro-7-[(2R)-2-[[(3-chloropyridin-2-yl)oxy]methyl]-4-methoxy-pyrrolidin-1-yl]-1-[6-[3-(dimethyl-amino)azetidin-1-yl]pyridin-3-yl]-4-oxoquinoline-3-carboxylic acid] | – | ≤ 1000 |
| CN(C)C1CN(c2ccc(-n3cc(C(=O)O)c(=O)c4cc(Cl)c(N5CC(c6cn(C)cn6)C[C@@H]5COc5ncccc5Cl)cc43)cn2)C1 (stereo partly drawn) [Compound 276, 6-chloro-7-((2R)-2-(((3-chloropyridin-2-yl)oxy)methyl)-4-(1-methyl-1H-imidazol-4-yl)pyrrolidin-1-yl)-1-(6-(3-(dimethyl-amino)azetidin-1-yl)pyridin-3-yl)-4-oxo-1,4-dihydro-quinoline-3-carboxylic acid] | – | ≤ 1000 |
| COc1ccnc(OC[C@H]2C[C@H]3C[C@H]3N2c2cc3c(cc2F)c(=O)c(C(=O)O)cn3-c2ccc(N(C)C)nc2)c1F [Compound 197, 1-(6-(dimethyl-amino)pyridin-3-yl)-6-fluoro-7-((1R,3R,5R)-3-(((3-fluoro-4-methoxy-pyridin-2-yl)oxy)methyl)-2-azabicyclo [3.1.0]hexan-2-yl)-4-oxo-1,4-dihydro-quinoline-3-carboxylic acid] | – | ≤ 1000 |
| Cc1ccc(OC[C@H]2CCCN2c2cc3c(cc2F)c(=O)c(C(=O)O)cn3-c2ccccc2)nc1 [Compound 93, (R)-6-fluoro-7-(2-(((5-methyl-pyridin-2-yl)oxy)methyl)pyrrolidin-1-yl)-4-oxo-1-phenyl-1,4-dihydro-quinoline-3-carboxylic acid] | – | ≤ 1000 |

Next, values leading:

| IC50 [1] [nM] | IC50 [2] [nM] | Structure (SMILES) |
| --- | --- | --- |
| ≤ 1000 | – | O=C(O)c1cn(-c2cnn3c2CNCC3)c2cc(N3CCC[C@@H]3COc3ncccc3Cl)c(Cl)cc2c1=O [Example 514, (R)-6-chloro-7-(2-(((3-chloropyridin-2-yl)oxy)methyl)pyrrolidin-1-yl)-4-oxo-1-(4,5,6,7-tetrahydropyrazolo [1,5-a]pyrazin-3-yl)-1,4-dihydroquinoline-3-carboxylic acid] |
| ≤ 1000 | – | O=C(O)c1cn(-c2ccc(C3CNC3)nc2)c2cc(N3CCC[C@@H]3COc3ncccc3Cl)c(Cl)cc2c1=O [Example 606, (R)-1-(6-(azetidin-3-yl)pyridin-3-yl)-6-chloro-7-(2-(((3-chloropyridin-2-yl)oxy)methyl)pyrrolidin-1-yl)-4-oxo-1,4-dihydroquinoline-3-carboxylic acid] |
| ≤ 1000 | – | CNc1ccc(-n2cc(C(=O)O)c(=O)c3cc(Cl)c(N4CCC[C@@H]4COc4ncccc4Cl)cc32)cn1 [Example 417, (R)-6-chloro-7-(2-(((3-chloropyridin-2-yl)oxy)methyl)pyrrolidin-1-yl)-1-(6-(methylamino)pyridin-3-yl)-4-oxo-1,4-dihydroquinoline-3-carboxylic acid] |
| ≤ 1000 | – | COCCNc1ccc(-n2cc(C(=O)O)c(=O)c3cc(I)c(N4CCC[C@@H]4COc4ncccc4Cl)cc32)cn1 [Example 558, (R)-7-(2-(((3-chloropyridin-2-yl)oxy)methyl)pyrrolidin-1-yl)-6-iodo-1-(6-((2-methoxyethyl)amino)pyridin-3-yl)-4-oxo-1,4-dihydroquinoline-3-carboxylic acid] |
| – | ≤ 1000 | Nc1ccc(-n2cc(C(=O)O)c(=O)c3cc(F)c(N4CCC[C@@H]4COc4ncccc4F)cc32)cn1 [Compound 316, 1-(6-Aminopyridin-3-yl)-6-fluoro-7-[(2R)-2-[[(3-fluoropyridin-2-yl)oxy]methyl]pyrrolidin-1-yl]-4-oxoquinoline-3-carboxylic acid] |
| ≤ 1000 | – | O=C(O)c1cn(-c2ccc(N3CC4CNCC4C3)nc2)c2cc(N3CCC[C@@H]3COc3ncccc3Cl)c(Cl)cc2c1=O (stereo partly drawn) [Example 527, 6-chloro-7-((R)-2-(((3-chloropyridin-2-yl)oxy)methyl)pyrrolidin-1-yl)-1-(6-(hexahydro-pyrrolo[3,4-c]pyrrol-2(1H)-yl)pyridin-3-yl)-4-oxo-1,4-dihydroquinoline-3-carboxylic acid acid] |
| ≤ 1000 | – | O=C(O)c1cn(-c2ccc(C3COC3)nc2)c2cc(N3CCC[C@@H]3COc3ncccc3Cl)c(Cl)cc2c1=O [Example 605, (R)-6-chloro-7-(2-(((3-chloropyridin-2-yl)oxy)methyl)pyrrolidin-1-yl)-1-(6-(oxetan-3-yl)pyridin-3-yl)-4-oxo-1,4-dihydroquinoline-3-carboxylic acid] |
| ≤ 1000 | – | Nc1ccc(-n2cc(C(=O)O)c(=O)c3cc(Br)c(N4CCC[C@@H]4COc4ncccc4Cl)cc32)cn1 [Example 509, 1-(6-aminopyridin-3-yl)-6-bromo-7-[(2R)-2-{[(3-chloropyridin-2-yl)oxy]methyl}pyrrolidin-1-yl]-4-oxo-1,4-dihydroquinoline-3-carboxylic acid] |
| – | ≤ 1000 | Cc1cccnc1OC[C@H]1CCCN1c1cc2c(cc1Cl)c(=O)c(C(=O)O)cn2-c1cnccn1 [Compound 212, 6-Chloro-7-[(2R)-2-{[(3-methylpyridin-2-yl)oxy]methyl}pyrrolidin-1-yl]-4-oxo-1-(pyrazin-2-yl)quinoline-3-carboxylic acid] |

From patent US12662491B2 (Redona Therapeutics, Inc., priority 2020, dated 2026)
